Source: PubChem BioAssay (NCI)
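Values below derive from 48-hour exposures of cells grown in 96-well plates, with endpoints linearly interpolated between the two concentrations bracketing the appropriate inhibition level. TGI: total growth inhibition.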

How the values were obtained:
Experiment in all cases: inhibition of tumour cell growth, NCI panel, 48 h
[1] = tested on: 786-0 renal
[2] = tested on: A498 renal
[3] = tested on: A549 NSCLC
[4] = tested on: ACHN renal
[5] = tested on: BT-549 breast
[6] = tested on: CCRF-CEM leukemia
[7] = tested on: COLO 205 colon
[8] = tested on: DU-145 prostate
[9] = tested on: EKVX NSCLC
[10] = tested on: HCC-2998 colon
[11] = tested on: HCT-116 colon
[12] = tested on: HCT-15 colon
[13] = tested on: HL-60(TB) leukemia
[14] = tested on: HOP-62 NSCLC
[15] = tested on: HOP-92 NSCLC
[16] = tested on: HS 578T breast
[17] = tested on: HT29 colon
[18] = tested on: IGROV1 ovarian
[19] = tested on: K-562 leukemia
[20] = tested on: KM12 colon
[21] = tested on: LOX IMVI melanoma
[22] = tested on: M14 melanoma
[23] = tested on: MALME-3M melanoma
[24] = tested on: MCF7 breast
[25] = tested on: MDA-MB-231 breast
[26] = tested on: MDA-MB-435
[27] = tested on: MDA-N
[28] = tested on: MOLT-4 leukemia
[29] = tested on: NCI-H226 lung
[30] = tested on: NCI-H23 lung
[31] = tested on: NCI-H460 lung
[32] = tested on: NCI-H522 lung
[33] = tested on: NCI/ADR-RES ovarian
[34] = tested on: OVCAR-3 ovarian
[35] = tested on: OVCAR-4 ovarian
[36] = tested on: OVCAR-5 ovarian
[37] = tested on: OVCAR-8 ovarian
[38] = tested on: PC-3 prostate
[39] = tested on: RPMI-8226 leukemia
[40] = tested on: RXF 393 renal
[41] = tested on: SF-268 CNS
[42] = tested on: SF-295 CNS
[43] = tested on: SF-539 CNS
[44] = tested on: SK-MEL-28 melanoma
[45] = tested on: SK-MEL-5 melanoma
[46] = tested on: SK-OV-3 ovarian
[47] = tested on: SN12C renal
[48] = tested on: SNB-19 CNS
[49] = tested on: SNB-75 CNS
[50] = tested on: SR leukemia
[51] = tested on: SW-620 colon
[52] = tested on: T-47D breast
[53] = tested on: TK-10 renal
[54] = tested on: U251 CNS
[55] = tested on: UACC-257 melanoma
[56] = tested on: UACC-62 melanoma
[57] = tested on: UO-31 renal
[58] = tested on: CAKI-1 renal
[59] = tested on: SK-MEL-2 melanoma

With `Cc1c(CCOC=O)c(=O)[nH]c2nncn12` the TGI [1] was > 100 µM, the TGI [2] was > 100 µM and the TGI [3] was > 100 µM. For the same compound, the TGI [4] was > 100 µM, the TGI [5] was > 100 µM and the TGI [6] was > 100 µM. For the same compound, the TGI [7] was > 100 µM, the TGI [8] was > 100 µM and the TGI [9] was > 100 µM. The TGI [10] was > 100 µM, the TGI [11] was > 100 µM and the TGI [12] was > 100 µM. The TGI [13] was > 100 µM, the TGI [14] was > 100 µM and the TGI [15] was > 100 µM. The TGI [16] was > 100 µM, the TGI [17] was > 100 µM and the TGI [18] was > 100 µM. For the same compound, the TGI [19] was > 100 µM, the TGI [20] was > 100 µM and the TGI [21] was > 100 µM. For the same compound, the TGI [22] was > 100 µM, the TGI [23] was > 100 µM and the TGI [24] was > 100 µM. The TGI [25] was > 100 µM, the TGI [26] was > 100 µM and the TGI [27] was > 100 µM. The TGI [28] was > 100 µM, the TGI [29] was > 100 µM and the TGI [30] was > 100 µM. The TGI [31] was > 100 µM, the TGI [32] was > 100 µM and the TGI [33] was > 100 µM. For the same compound, the TGI [34] was > 100 µM, the TGI [35] was > 100 µM and the TGI [36] was > 100 µM. The TGI [37] was > 100 µM, the TGI [38] was > 100 µM and the TGI [39] was > 100 µM. The TGI [40] was > 100 µM, the TGI [41] was > 100 µM and the TGI [42] was > 100 µM. For the same compound, the TGI [43] was > 100 µM, the TGI [44] was > 100 µM and the TGI [45] was > 100 µM. The TGI [46] was > 100 µM, the TGI [47] was > 100 µM and the TGI [48] was > 100 µM. The TGI [49] was > 100 µM, the TGI [50] was > 100 µM and the TGI [51] was > 100 µM. The TGI [52] was > 100 µM, the TGI [53] was > 100 µM and the TGI [54] was > 100 µM. For the same compound, the TGI [55] was > 100 µM, the TGI [56] was > 100 µM and the TGI [57] was > 100 µM.

Compound `COc1ccc(/C=C2\C[C@H]3[C@@H]4CCC5=C[C@@H](N6CCCC6)CC[C@]5(C)[C@H]4CC[C@]3(C)[C@H]2O)cc1` has a TGI [1] of 2.94 µM, a TGI [2] of 3.2 µM and a TGI [3] of 7.59 µM. It also gave a TGI [4] of 11.7 µM, a TGI [5] of 14.1 µM and a TGI [58] of 14.6 µM. It also gave a TGI [7] of 3.54 µM, a TGI [8] of 20.8 µM and a TGI [9] of 17 µM. The TGI [10] was 3.27 µM, the TGI [11] was 5.45 µM and the TGI [12] was 5.77 µM. For the same compound, the TGI [13] was 4.21 µM, the TGI [14] was 3.74 µM and the TGI [15] was 9.51 µM. For the same compound, the TGI [16] was 8.66 µM, the TGI [17] was 3.15 µM and the TGI [18] was 20 µM. It also gave a TGI [19] of 11.8 µM, a TGI [20] of 8.02 µM and a TGI [21] of 3.61 µM. It also gave a TGI [22] of 2.9 µM, a TGI [23] of 5.87 µM and a TGI [24] of 5.84 µM. The TGI [25] was 4.6 µM, the TGI [26] was 4.47 µM and the TGI [27] was 3.73 µM. For the same compound, the TGI [28] was > 45.4 µM, the TGI [29] was 10.9 µM and the TGI [30] was 16.3 µM. For the same compound, the TGI [31] was 8.04 µM, the TGI [32] was 7.36 µM and the TGI [33] was 16.8 µM. It also gave a TGI [34] of 8.26 µM, a TGI [35] of 13.9 µM and a TGI [36] of 20.9 µM. For the same compound, the TGI [37] was 16.4 µM, the TGI [38] was 8.17 µM and the TGI [39] was > 29.2 µM. For the same compound, the TGI [40] was 3.29 µM, the TGI [41] was 11.6 µM and the TGI [42] was 5.52 µM. For the same compound, the TGI [43] was 5.71 µM, the TGI [59] was 3.6 µM and the TGI [44] was 3.66 µM. The TGI [45] was 2.91 µM, the TGI [46] was 14.8 µM and the TGI [47] was 12.3 µM. The TGI [48] was 16.1 µM, the TGI [49] was 14.5 µM and the TGI [50] was 6.32 µM. For the same compound, the TGI [52] was 14.1 µM, the TGI [53] was 7.44 µM and the TGI [54] was 12.5 µM. It also gave a TGI [55] of 2.98 µM, a TGI [56] of 3.28 µM and a TGI [57] of 3.26 µM.
